According to patent publication US10093660B2, “Sulfoximine substituted quinazolines for pharmaceutical compositions” (EVOTEC INTERNATIONAL GMBH, priority 2013, dated 2018):

Key:
MNK2a = MNK2a (Homo sapiens (Human), UniProt Q9HBH9); experiment: MNK2a in vitro kinase assay (Assay 2), ADP-Glo; format: biochemical; settings: assay 2; read-out: MNK2 IC50
Source text: B. MNK2a In Vitro Kinase Assay (Assay 2)

MNK1a = MNK1a (Homo sapiens (Human), UniProt Q9BUB5); experiment: MNK1 in vitro kinase assay (Assay 3), Z'-LYTE; format: biochemical; settings: for inhibition at 1 µM: read-out: MNK1 % INH
Source text: C. MNK1 In Vitro Kinase Assay (Assay 3)
MNK1 Data can be obtained from the MNK1 Z′-LYTE® assay. The MNK1 Z′-LYTE® screening protocol and assay conditions are also described on www.invitrogen.com.
The assay is described as follows:
The Z′-LYTE® biochemical assay employs a fluorescence-based, coupled-enzyme format and is based on the differential sensitivity of phosphorylated and non-phosphorylated peptides to proteolytic cleavage. The peptide substrate is labeled with two fluorophores—one at each end—that make up a FRET pair.
In the primary reaction, the kinase transfers the gamma-phosphate of ATP to a single tyrosine, serine or threonine residue in a synthetic FRET-peptide. In the secondary reaction, a site-specific protease recognizes and cleaves non-phosphorylated FRET-peptides. Phosphorylation of FRET-peptides suppresses cleavage by the Development Reagent. Cleavage disrupts FRET between the donor (i.e., coumarin) and acceptor (i.e., fluorescein) fluorophores on the FRET-peptide, whereas uncleaved, phosphorylated FRET-peptides maintain FRET. A ratiometric method, which calculates the ratio (the Emission Ratio) of donor emission to acceptor emission after excitation of the donor fluorophore at 400 nm, is used to quantitate reaction progress, as shown in the equation below.
The 2×MKNK1 (MNK1) mixture is prepared in 50 mM HEPES pH 7.5, 0.01% BRIJ-35, 10 mM MgCl2, 4 mM MnCl2, 1 mM EGTA, 2 mM DTT.
The Test Compounds are screened in 1% DMSO (final) in the well.
All Peptide/Kinase Mixtures are diluted to a 2× working concentration in the MNK1 Kinase Buffer.
All ATP Solutions are diluted to a 4× working concentration in Kinase Buffer (50 mM HEPES pH 7.5, 0.01% BRIJ-35, 10 mM MgCl2, 1 mM EGTA).
Development Reagent Solution:
The Development Reagent is diluted in Development Buffer
1. 2.5 μL—4× Test Compound
2. 5 μL—2× Peptide/Kinase Mixture
5. 60-minute Kinase Reaction incubation at room temperature
6. 5 μL—Development Reagent Solution
8. 60-minute Development Reaction incubation at room temperature
9. Read on fluorescence plate reader and analyze the data
Control C0%=Average Coumarin emission signal of the 0% Phos. Control F100%=Average Fluorescein emission signal of the 100% Phos. Control F0%=Average Fluorescein emission signal of the 0% Phos. Control Graphing Software
SelectScreen® Kinase Profiling Service uses XLfit from IDBS. […] The activity of MNK proteins can be assayed also by other in vitro kinase assay formats. […] In general, MNK kinase assays can be performed such that a MNK substrate such as a protein or a peptide, which may or may not include modifications as further described below, or others are phosphorylated by MNK proteins having enzymatic activity in vitro. The activity of a candidate agent can then be determined via its ability to decrease the enzymatic activity of the MNK protein. The kinase activity may be detected by change of the chemical, physical or immunological properties of the substrate due to phosphorylation.

Sequence of MNK2a (Q9HBH9 whole entry): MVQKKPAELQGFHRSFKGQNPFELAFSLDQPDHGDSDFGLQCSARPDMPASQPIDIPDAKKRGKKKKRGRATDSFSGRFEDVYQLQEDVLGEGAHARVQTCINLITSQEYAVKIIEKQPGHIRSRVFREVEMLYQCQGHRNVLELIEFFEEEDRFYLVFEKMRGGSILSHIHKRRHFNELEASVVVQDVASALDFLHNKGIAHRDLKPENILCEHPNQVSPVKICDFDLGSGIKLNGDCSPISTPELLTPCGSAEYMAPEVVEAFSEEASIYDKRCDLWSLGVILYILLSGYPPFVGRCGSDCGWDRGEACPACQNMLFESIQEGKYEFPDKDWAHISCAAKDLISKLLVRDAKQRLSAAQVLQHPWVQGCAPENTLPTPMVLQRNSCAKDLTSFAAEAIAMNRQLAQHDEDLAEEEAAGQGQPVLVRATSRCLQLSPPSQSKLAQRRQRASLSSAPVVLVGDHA
Sequence of MNK1a (Q9BUB5 other isoform, or with tags, fused parts or gaps): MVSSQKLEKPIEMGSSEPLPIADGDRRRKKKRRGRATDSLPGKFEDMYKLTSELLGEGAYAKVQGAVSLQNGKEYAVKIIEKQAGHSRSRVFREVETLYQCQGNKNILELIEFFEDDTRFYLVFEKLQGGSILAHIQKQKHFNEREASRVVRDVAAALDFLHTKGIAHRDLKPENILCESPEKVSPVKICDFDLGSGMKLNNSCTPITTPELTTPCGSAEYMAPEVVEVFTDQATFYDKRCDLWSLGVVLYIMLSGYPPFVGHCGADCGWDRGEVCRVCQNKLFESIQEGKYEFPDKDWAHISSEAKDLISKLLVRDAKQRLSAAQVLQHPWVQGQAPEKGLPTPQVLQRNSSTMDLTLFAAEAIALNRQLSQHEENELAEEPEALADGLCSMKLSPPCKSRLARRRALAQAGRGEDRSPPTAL

Row | Compound | IC50 (MNK2a) | inhibition at 1 µM (MNK1a; compound concentration of 1 μM) | IC50 (MNK1a) | MNK1 % INH (MNK1a; compound concentration of 1 μM)
1 | COc1cc(N=S(C)(=O)c2cccnc2)cc2ncnc(Nc3ccc(F)cc3O[C@H]3COC[C@H]3O)c12 (mixture of isomers) [Example 9.12] | 27 nM | 86% | – | –
2 | COc1cc(N=S(C)(=O)C2CCOCC2)cc2ncnc(Nc3ccc(F)cc3O[C@H]3COC[C@H]3O)c12 (mixture of isomers) [Example 9.15] | 32 nM | 82% | – | –
3 | COc1cc(N=S(C)(=O)C2CC2)cc2ncnc(Nc3ccc(F)cc3O[C@H]3COC[C@H]3O)c12 (mixture of isomers) [Example 9.17] | 33 nM | 92% | – | –
4 | COc1cc(N=S(C)(=O)C(C)(C)C)cc2ncnc(Nc3ccc(F)cc3O[C@H]3COC[C@H]3O)c12 (mixture of isomers) [Example 9.19] | 42 nM | – | 329 nM | –
5 | COc1cc(N=S(C)(=O)C(C)C)cc2ncnc(Nc3ccc(F)cc3O[C@H]3COC[C@H]3O)c12 (mixture of isomers) [Example 9.20] | 23 nM | 87% | – | –
6 | COc1cc(N=S(C)(=O)c2ccccc2)cc2ncnc(Nc3ccc(F)cc3O[C@H]3COC[C@H]3O)c12 (mixture of isomers) [Example 9.21] | 23 nM | 84% | – | –
7 | COc1cc(N=S2(=O)CCC(C)C2)cc2ncnc(Nc3ccc(F)cc3O[C@H]3COC[C@H]3O)c12 (mixture of isomers) [Example 9.23] | 8 nM | 93% | – | –
8 | CS(C)(=O)=Nc1cc(Cl)c2c(Nc3ccc(F)cc3O[C@H]3COC[C@H]3O)ncnc2c1 (racemic) [Example 1.3] | 3 nM | 95% | – | –
9 | CO[C@@H]1COC[C@@H]1Oc1cc(F)ccc1Nc1ncnc2cc(N=S(C)(C)=O)cc(Cl)c12 (racemic) [Example 1.4] | 2 nM | 97% | – | –
10 | O=S1(=Nc2cc(Cl)c3c(Nc4ccc(F)cc4O[C@H]4COC[C@H]4O)ncnc3c2)CCCC1 (racemic) [Example 1.5] | 2 nM | 88% | – | –
11 | Cc1cc(N=S(C)(C)=O)cc2ncnc(Nc3cccnc3O[C@@H]3COC[C@@H]3O)c12 (racemic) [Example 2.4] | 17 nM | 93% | – | –
12 | Cc1cc(N=S2(=O)CCCC2)cc2ncnc(Nc3ccc(F)cc3O[C@H]3COC[C@H]3O)c12 (racemic) [Example 2.8] | 2 nM | 100% | – | –
13 | CO[C@@H]1COC[C@@H]1Oc1cc(F)ccc1Nc1ncnc2cc(N=S3(=O)CCCC3)cc(C)c12 (racemic) [Example 2.10] | 2 nM | 105% | – | –
14 | Cc1cc(N=S2(=O)CCCC2)cc2ncnc(Nc3cccnc3O[C@H]3COC[C@H]3OCCF)c12 (racemic) [Example 2.25] | 2 nM | – | 46 nM | –
15 | CO[C@H]1COC[C@@H]1Oc1ncccc1Nc1ncnc2cc(N=S3(=O)CCCC3)cc(C)c12 (racemic) [Example 2.39] | 7 nM | 86% | – | –
16 | CS(C)(=O)=Nc1cc(F)c2c(Nc3ccc(F)cc3O[C@H]3COC[C@H]3O)ncnc2c1 (racemic) [Example 2.52] | 15 nM | 97% | – | –
17 | CO[C@@H]1CCC(Oc2cc(F)ccc2Nc2ncnc3cc(N=S4(=O)CCC4)cc(C)c23)CO1 (mixture of isomers) [Example 2.56] | 2 nM | 95% | – | –
18 | CO[C@@H]1COC[C@@H]1Oc1cc(F)ccc1Nc1ncnc2cc(N=S(C)(C)=O)cc(F)c12 (racemic) [Example 2.57] | 6 nM | 82% | – | –
19 | Cc1cc(N=S(C)(=O)C2CCOCC2)cc2ncnc(Nc3ccc(F)cc3O[C@@H]3COC[C@@H]3O)c12 (mixture of isomers) [Example 2.65] | 10 nM | 100% | – | –
20 | Cc1cc(N=S(C)(=O)C(C)(C)C)cc2ncnc(Nc3ccc(F)cc3O[C@@H]3COC[C@@H]3O)c12 (mixture of isomers) [Example 2.68] | 11 nM | 94% | – | –
21 | Cc1cc(N=S(C)(=O)c2cccnc2)cc2ncnc(Nc3ccc(F)cc3O[C@@H]3COC[C@@H]3O)c12 (mixture of isomers) [Example 2.70] | 10 nM | 92% | – | –
22 | Cc1cc(N=S(C)(=O)C(C)C)cc2ncnc(Nc3ccc(F)cc3O[C@@H]3COC[C@@H]3O)c12 (mixture of isomers) [Example 2.71] | 6 nM | 94% | – | –

Row | Compound | IC50 (MNK2a) | inhibition at 1 µM (MNK1a; compound concentration of 1 μM) | IC50 (MNK1a) | MNK1 % INH (MNK1a; compound concentration of 1 μM)
23 | Cc1cc(N=S2(=O)CCC(O)CC2)cc2ncnc(Nc3ccc(F)cc3O[C@@H]3COC[C@@H]3O)c12 (mixture of isomers) [Example 2.76] | 7 nM | 96% | – | –
24 | Cc1cc(N=S2(=O)CCC(C)C2)cc2ncnc(Nc3ccc(F)cc3O[C@@H]3COC[C@@H]3O)c12 (mixture of isomers) [Example 2.83] | 4 nM | 97% | – | –
25 | CC(=O)O[C@@H]1COC[C@@H]1Oc1cc(F)ccc1Nc1ncnc2cc(N=S(C)(C)=O)cc(C)c12 (racemic) [Example 6.9] | 7 nM | 90% | – | –
26 | COCCO[C@@H]1COC[C@@H]1Oc1cc(F)ccc1Nc1ncnc2cc(N=S(C)(C)=O)cc(C)c12 (racemic) [Example 7.1] | 45 nM | 62% | – | –
27 | Cc1cc(N=S(C)(C)=O)cc2ncnc(Nc3ccc(F)cc3O[C@H]3COC[C@H]3OCC3CC3)c12 (racemic) [Example 7.2] | 6 nM | 94% | – | –
28 | Cc1cc(N=S(C)(C)=O)cc2ncnc(Nc3ccc(F)cc3O[C@H]3COC[C@H]3OC3COC3)c12 (racemic) [Example 7.3] | 7 nM | 93% | – | –
29 | COc1cc(N=S2(=O)CCC2)cc2ncnc(Nc3cccnc3O[C@H]3COC[C@H]3O)c12 (racemic) [Example 8.4] | 11 nM | – | 104 nM | –
30 | COc1cc(N=S2(=O)CCCC2)cc2ncnc(Nc3cccnc3O[C@H]3COC[C@H]3O)c12 (racemic) [Example 8.5] | 21 nM | 97% | – | –
31 | COc1cc(N=S(C)(C)=O)cc2ncnc(Nc3ccc(F)cc3O[C@H]3COC[C@H]3OC)c12 (racemic) [Example 9.1] | 2 nM | 96% | – | –
32 | COc1cc(N=S2(=O)CCCC2)cc2ncnc(Nc3ccc(F)cc3O[C@H]3COC[C@H]3OC)c12 (racemic) [Example 9.2] | 2 nM | 94% | – | –
33 | Cc1cc(N=S2(=O)CCC2)cc2ncnc(Nc3ccc(F)cc3O[C@H]3COC[C@H]3O)c12 (single isomer, unassigned) [Example 1.37] | – | 97% | – | –
34 | Cc1cc(N=S2(=O)CCCC2)cc2ncnc(Nc3cccnc3O[C@@H]3COC[C@@H]3O)c12 (single isomer, unassigned) [Example 14.3] | – | 100% | – | –
35 | Cc1cc(N=S2(=O)CCCC2)cc2ncnc(Nc3cccnc3O[C@H]3COC[C@H]3O)c12 (single isomer, unassigned) [Example 14.4] | – | 103% | – | –
36 | Cc1cc(N=S2(=O)CCCC2)cc2ncnc(Nc3cccnc3O[C@H]3COC[C@@H]3O)c12 [Example 2.24] | – | 99% | – | –
37 | Cc1cc(N=S(C)(C)=O)cc2ncnc(Nc3ccc(F)cc3O[C@H]3COC[C@@H]3O)c12 [Example 2.27] | – | 97% | – | –
38 | Cc1cc(N=S2(=O)CCC2)cc2ncnc(Nc3ccc(F)cc3O[C@H]3COC[C@@H]3O)c12 [Example 2.36] | – | – | 51 nM | –
39 | Cc1cc(N=S(C)(C)=O)cc2ncnc(Nc3ccc(F)cc3O[C@H]3COC[C@@H]3O)c12 [Example 2.45] | – | – | 92 nM | 92%
40 | Cc1cc(N=S2(=O)CCC2)cc2ncnc(Nc3ccc(F)cc3O[C@@H]3COC[C@H]3O)c12 [Example 2.47] | – | 103% | – | –
41 | Cc1cc(N=S2(=O)CCC2)cc2ncnc(Nc3cccnc3O[C@@H]3COC[C@H]3O)c12 [Example 2.49] | – | 94% | – | –
42 | O=S1(=Nc2cc(F)c3c(Nc4ccc(F)cc4O[C@H]4COC[C@@H]4O)ncnc3c2)CCCC1 [Example 2.66] | – | 100% | – | –
43 | Cc1cc(N=S(C)(=O)C2CC2)cc2ncnc(Nc3ccc(F)cc3O[C@H]3COC[C@@H]3O)c12 (some centres unmarked) [Example 2.77] | – | 94% | – | –
44 | Cc1cc(N=S2(=O)CCCC2)cc2ncnc(Nc3ccc(F)cc3O[C@H]3CNC[C@@H]3O)c12 [Example 3.6] | – | 98% | – | –
